Patent US5078986A, “Method for enhancing magnetic resonance imaging using an image altering agent containing an excess of chelating agent” (Mallinckrodt Medical, Inc., priority 1990, dated 1992)
Entries after “also recorded” stand apart in the source; their conditions may differ.

Assays:
[1] = test system: renal medulla and renal cortex; assay: Abdominal NMR imaging in rabbits (Example 11); assay type: in vivo, rabbit; conditions: 0.3 ml/kg (0.5 mmol Gd(III)/kg) i.v.
Experimental: Two rabbits were anesthetized and abdominal NMR images were obtained in the General Electric NMR scanner. Rabbits then received intravenous doses of 0.3 ml/kg (0.5 mmol Gd(III)/kg) of the preparation of composition D of Example 1 (GdNa2 DTPA) and additional abdominal NMR images were made over a period of two hours after dosing.

[2] = test system: normal and infarcted myocardial tissue, blood; assay: Proton T1 values of myocardium and blood in dogs with coronary occlusion (Example 10); assay type: in vivo, dog; conditions: for Blood T1: before 510
[3] = test system: excised hearts (normal and infarcted tissues); assay: NMR imaging of excised hearts of dogs with coronary occlusion (Example 10); assay type: in vivo, dog; conditions: 2 ml/kg (0.34 mmol Gd(III)/kg), 10 min
Experimental: Selective catheterization of the left anterior descending coronary artery or circumflex coronary artery was achieved via a percutaneous intracarotid artery approach in anesthetized dogs. Gelfoam plugs were inserted into the coronary artery, via the catheter, in order to produce coronary occlusion. Animals were treated with lidocaine to prevent coronary arrhythmias and morphine to relieve pain.

mice = assay: Acute intravenous toxicity in mice (Example 7); assay type: in vivo, Swiss CF-1 albino mouse
Text: The acute intravenous toxicity of disodium (diethylenetriaminepentaacetato)gadolinium (III) (composition C of Example 1) was studied.
A total of 16 Swiss CF-1 albino mice (8 male, 22.0-25.6 g; 8 female, 18.2-24.1 g) were used. Picric acid markings were used for individual identification.
The protocol of Example 4 was used. Groups of 2-4 mice, with sexes equally represented, received single intravenous doses of the test substance according to the following schedule: […]

[4] = test system: tissue and blood protons of rabbits; assay: Tissue and blood proton T1 and T2 values in rabbits (Example 9); assay type: in vivo, rabbit; conditions: 0.51 mmol/kg i.v., 15 min
Experimental: The EKG was recorded with surface electrodes.

O=C([O-])CN(CCN(CC(=O)[O-])CC(=O)[O-])CCN(CC(=O)[O-])CC(=O)[O-].[Gd+3].[Na+].[Na+] [GdNa2 DTPA, disodium (diethylenetriaminepentaacetato)gadolinium (III)]
Alteration of renal proton images [1]: Marked alteration of renal medulla and renal cortex proton images | Time to peak effects [1]: ≤ 15 min | T1, infarcted regions of heart muscle ([2]; 0.17 mmol Gd(III)/kg i.v., 10 min): 290 ms | T1, normally perfused myocardial tissue ([2]; 0.17 mmol Gd(III)/kg i.v., 10 min, untreated 330): 180 ms | Blood T1 ([2]; 0.34 mmol Gd(III)/kg, 5 minutes): 50 ms | T1, infarcted tissue ([2]; 0.34 mmol Gd(III)/kg, 10 min): 230 ms | T1, normally perfused myocardium ([2]; 0.34 mmol Gd(III)/kg, 10 min, untreated 330): 135 ms | Blood T1 ([2]; 0.34 mmol Gd(III)/kg, 10 minutes): 100 ms | Image differences between normal and infarcted tissues [3]: marked differences between normal and infarcted tissues; also recorded: greater than that observed in hearts from dogs with infarcts who had not received a contrast enhancement agent | T1 image of blood remaining in the ventricles [3]: much different T1 image | Dose up to which no deaths were observed (mice; mouse, i.v.): 12000 mg/kg | Ataxia (mice; mouse, in vivo): slight ataxia | Body weight (in words) (mice; mouse, in vivo): slight reduction in body weight | Respiratory distress (mice; mouse, in vivo): respiratory distress was observed | Time until all mice appeared normal (mice; mouse, in vivo, iv): ≤ 6 h | Acute intravenous toxicity profile (in words) (mice; up to 12.0 g/kg): relatively safe mouse acute intravenous toxicity profile | Mean tissue T1, Fat [4]: 61 ms | Mean tissue T1, Renal Medulla [4]: 130 ms
